Data on 26 molecules can be found in ChEMBL document CHEMBL1121784, “Quantitative structure-activity relationships by distance geometry: thyroxine binding site” (J Med Chem, 1981).

Each structure is given as a SMILES string.

For this assay, the target named is Transthyretin (Homo sapiens) (UniProt P02766). In words: Binding affinity against prealbumin.
With `CCc1cc(C)c(Oc2c(I)c(C)c(CC(N)C(=O)O)c(C)c2I)c(C)c1C` (stereo unspecified), the Delta G is -7.4 kcal/M.

`CCc1c(I)c(C)c(Oc2cc(C)c(CC(N)C(=O)O)c(C)c2I)c(C)c1I` (stereo unspecified) returned a Delta G of -10 kcal/M. `CCc1cc(C)c(Oc2c(I)c(C)c(CC(=O)O)c(C)c2I)c(C)c1I` had a Delta G of -9.7 kcal/M. The molecule `CCc1c(I)c(C)c(Oc2c(C)c(C)c(CC(N)C(=O)O)c(C)c2C)c(C)c1I` (stereo unspecified) registered a Delta G of -7.7 kcal/M.

Regarding `CCc1cc(C)c(Oc2c(I)c(C)c(CC(N)C(=O)O)c(C)c2I)c(C)c1CC(C)C` (stereo unspecified), the Delta G is -8.4 kcal/M. `CCc1c(I)c(C)c(Oc2c(I)c(C)c(CCCC(=O)O)c(C)c2I)c(C)c1I` came in with a Delta G of -11.3 kcal/M. `CCc1c(I)c(C)c(Oc2c(I)c(C)c(CC(=O)O)c(C)c2I)c(C)c1I` showed a Delta G of -11.9 kcal/M. Molecule `CCc1c(C)c(C)c(Oc2c(I)c(C)c(CC(N)C(=O)O)c(C)c2I)c(C)c1C` (stereo unspecified) returned a Delta G of -6.6 kcal/M. Take `CCc1cc(C)c(Oc2c(I)c(C)c(CC(N)C(=O)O)c(C)c2I)c(C)c1I` (stereo in doubt; 21): the Delta G was -7 kcal/M.

Regarding `CCc1cc(C)c(Oc2c(C)c(C)c(CC(N)C(=O)O)c(C)c2C)c(C)c1I` (stereo unspecified), the Delta G is -7.8 kcal/M. In turn, `CCc1c(I)c(C)c(Oc2c(I)c(C)c(CC(N)C(=O)O)c(C)c2I)c(C)c1I` (stereo in doubt; 2) gave a Delta G of -10.7 kcal/M. In the case of `CCc1cc(C)c(Oc2c(I)c(C)c(CC(N)C(=O)O)c(C)c2I)c(C)c1Cl` (stereo unspecified), the Delta G is -7.7 kcal/M.

For `CCc1c(Br)c(C)c(Oc2c(I)c(C)c(CC(N)C(=O)O)c(C)c2I)c(C)c1Br` (stereo unspecified), the Delta G was -9.2 kcal/M. The same measure for `CCc1cc(C)c(Oc2cc(C)c(CC(N)C(=O)O)c(C)c2I)c(C)c1` (stereo unspecified): -5.2 kcal/M. On to `CCc1c(I)c(C)c(Oc2c(I)c(C)c(CC(N)C(=O)O)c(C)c2I)c(C)c1I` (stereo in doubt; 26), for which the Delta G is -8.7 kcal/M. `CCc1cc(C)c(Oc2cc(C)c(CC(N)C(=O)O)c(C)c2I)c(C)c1I` (stereo unspecified) yielded a Delta G of -7.6 kcal/M. The figure for `CCc1c(I)c(C)c(Oc2c(I)c(C)c(C(=O)O)c(C)c2I)c(C)c1I` is -11.1 kcal/M. With `CCc1cc(C)c(Oc2c(I)c(C)c(CC(N)C(=O)O)c(C)c2I)c(C)c1Br` (stereo unspecified), the Delta G was -8.2 kcal/M. The same measure for `CCc1c(I)c(C)c(Oc2c(I)c(C)c(CCC(=O)O)c(C)c2I)c(C)c1I`: -11.4 kcal/M; for `CCc1cc(C)c(Oc2c(I)c(C)c(CC(N)C(=O)O)c(C)c2I)c(C)c1` (stereo unspecified): -7.1 kcal/M. As to `CCCc1c(CC)cc(C)c(Oc2c(I)c(C)c(CC(N)C(=O)O)c(C)c2I)c1C` (stereo unspecified), the Delta G is -7.6 kcal/M. As to `CCc1cc(C)c(Oc2c(I)c(C)c(CC(N)C(=O)O)c(C)c2I)c(C)c1C(C)CC` (stereo unspecified), the Delta G was -9 kcal/M. The figure for `CCc1c(I)c(C)c(Oc2c(I)c(C)c(CCN)c(C)c2I)c(C)c1I` is -9.7 kcal/M. Take `CCc1cc(C)c(Oc2c(I)c(C)c(CC(N)C(=O)O)c(C)c2I)c(C)c1I` (stereo in doubt; 1): the Delta G was -9.2 kcal/M. In turn, `CCc1cc(C)c(Oc2c(I)c(C)c(CC(N)C(=O)O)c(C)c2I)c(C)c1C(C)C` (stereo unspecified) returned a Delta G of -7.8 kcal/M. In turn, `CCc1cc(C)c(Oc2c(I)c(C)c(CC(N)C(=O)O)c(C)c2I)c(C)c1C(C)(C)C` (stereo unspecified) gave a Delta G of -8 kcal/M.
